Assay results: patent US9297813B2, “Targeting metabolic enzymes in human cancer” (Agency for Science, Technology and Research, priority 2010, dated 2016)

Assays:
GLDC [1] = molecular target: T1, GLDC (Homo sapiens, UniProt P23378); conditions: cited from earlier work
T1 sequence (P23378 36-1020): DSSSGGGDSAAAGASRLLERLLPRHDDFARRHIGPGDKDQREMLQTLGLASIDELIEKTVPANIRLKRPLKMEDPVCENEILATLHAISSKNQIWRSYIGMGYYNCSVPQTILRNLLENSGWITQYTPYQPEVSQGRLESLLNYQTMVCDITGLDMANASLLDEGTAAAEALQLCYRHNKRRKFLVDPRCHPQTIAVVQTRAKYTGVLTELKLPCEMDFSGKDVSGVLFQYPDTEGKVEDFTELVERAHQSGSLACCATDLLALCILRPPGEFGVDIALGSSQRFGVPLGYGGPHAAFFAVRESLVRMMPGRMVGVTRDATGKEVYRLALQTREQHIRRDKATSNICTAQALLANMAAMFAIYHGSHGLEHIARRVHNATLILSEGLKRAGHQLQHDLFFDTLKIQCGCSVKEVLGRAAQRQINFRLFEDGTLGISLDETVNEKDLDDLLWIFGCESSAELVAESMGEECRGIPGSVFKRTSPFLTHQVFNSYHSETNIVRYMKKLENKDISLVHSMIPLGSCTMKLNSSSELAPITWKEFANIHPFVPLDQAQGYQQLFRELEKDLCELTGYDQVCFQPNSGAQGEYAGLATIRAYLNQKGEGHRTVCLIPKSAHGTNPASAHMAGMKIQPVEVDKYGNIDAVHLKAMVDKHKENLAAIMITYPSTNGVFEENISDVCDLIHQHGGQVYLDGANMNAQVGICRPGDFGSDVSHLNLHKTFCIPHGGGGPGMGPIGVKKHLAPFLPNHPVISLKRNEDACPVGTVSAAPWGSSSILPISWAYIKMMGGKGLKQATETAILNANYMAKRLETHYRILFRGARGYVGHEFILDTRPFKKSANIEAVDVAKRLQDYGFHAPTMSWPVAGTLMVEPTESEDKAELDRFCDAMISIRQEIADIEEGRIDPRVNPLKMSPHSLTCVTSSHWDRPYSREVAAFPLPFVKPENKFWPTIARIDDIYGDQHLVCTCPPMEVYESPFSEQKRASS

[2] = system: cytoplasmic and mitochondrial aspartate aminotransferase; conditions: cited from earlier work
GLDC [3] = molecular target: T1, GLDC; assay: Victorin: inhibition of GLDC expression, tumour formation and cell proliferation (no method given)
A549 cells [4] = assay: Soft agar colony formation with methotrexate, A549 cells with GLDC knockdown; assay type: cell-based, human; conditions: methotrexate in combination with GLDC shRNA versus either alone, 14 days
3T3 cells = assay: Adherent colony formation with methotrexate, 3T3 cells overexpressing GLDC; assay type: cell-based, mouse; conditions: low doses of methotrexate
Method: (§1) (E) Effects of the anti-folate drug methotrexate on colony formation after GLDC overexpression or knockdown. 3T3 and HLF cells overexpressing GLDC were plated at clonal density and exposed to varying concentrations of methotrexate for 8 days. A549 cells with GLDC knockdown were plated in soft agar at clonal density and exposed to varying concentrations of methotrexate for 14 days.
(§2) Adherent colony formation was performed by seeding 200-3000 single cells into 10 cm-culture dish and maintained for 10-14 days in DMEM/10% FBS. Colonies were stained by Wright-Giemsa and those colonies containing more than 50 cells were counted. For methotrexate (Sigma) treatment assay, cells were maintained in growth medium containing serial dilution of methotrexate (0, 0.1, 0.2, 0.5, 1, 2, 5, 10, 20 uM) and fresh medium were changed every 3 days.

HLF cells = assay: Adherent colony formation with methotrexate, HLF cells overexpressing GLDC; assay type: cell-based, human; conditions: low doses of methotrexate
Method: as §1, §2

A549 cells [5] = assay: Soft agar colony formation, sarcosine rescue after GLDC knockdown; assay type: cell-based, human; conditions: 10 μM sarcosine
Method: (F) Effects of sarcosine on soft agar colony formation after GLDC knockdown in A549 cells. 1000 cells were seeded in soft agar at clonal density and exposed to 10 μM sarcosine for 14 days.
Soft agar assays were conducted as described previously (Viswanathan et al., 2009). We stained colonies with 1% INT and counted them after 3-4 weeks of growth. For sarcosine rescue experiment, 10 μM of sarcosine (sigma) or PBS were added to top cells layer of agar and growth medium containing sarcosine were changed every 3 days before counting colonies.

Compound: NOCC(=O)O [Aminooxyacetate, (Aminooxy) acetate]
- GLDC binding and inhibition of GLDC activity (GLDC [1]): binds to GLDC and inhibits GLDC activity
- inhibition of aspartate aminotransferase or glutamate transaminases [2]: powerful inhibitor

Compound: CC(C[C@H](NC(=O)C(O)O)C(=O)N[C@H](C(=O)N[C@@H]1C(=O)N/C(=C/Cl)C(=O)N[C@H](C(=O)O)CC2=C(CC(O)C2=O)O[C@H]1C(C)C)[C@H](O)CCCN)C(Cl)Cl (some centres unmarked) [Victorin]
- inhibition of GLDC expression (GLDC [3]): able to inhibit GLDC expression
- tumour formation and cell proliferation (GLDC [3]): block or reduced tumour formation and cell proliferation

Compound: CN(Cc1cnc2nc(N)nc(N)c2n1)c1ccc(C(=O)N[C@@H](CCC(=O)O)C(=O)O)cc1 [methotrexate]
- killing of transformed A549 cells (A549 cells [4]): killed transformed A549 cells much more effectively than either alone
- GLDC-induced proliferation (colony formation) (3T3 cells; 3T3 cells overexpressing GLDC, 8 days): specifically abrogated GLDC-induced proliferation
- effect on control cells (3T3 cells; control 3T3 cells): little effects
- GLDC-induced proliferation (colony formation) (HLF cells; HLF cells overexpressing GLDC, 8 days): specifically abrogated GLDC-induced proliferation
- effect on control cells (HLF cells; control HLF cells): little effects

Compound: CNCC(=O)O [sarcosine, N-methylglycine]
- rescue of proliferation defect upon GLDC knockdown (A549 cells [5]; 14 days, A549 cells with GLDC retroviral knockdown): significantly rescue the proliferation defect
- effect on control A549 cells (A549 cells [5]; control A549 cells): little effect
